Data from patent US20220153746A1, “NITROGEN OXIDE-DONATING PDE-5 AND/OR PDE-6 INHIBITOR COMPOUNDS, AND USES THEREOF” (ILDONG PHARMACEUTICAL CO., LTD., priority 2020, published 2022).

Tested on: intraocular pressure (IOP) of ocular hypertensive rabbits
Assay: IOP lowering effect in ocular hypertensive rabbits (Example 9 Phase 2)
Assay type: in vivo
Conditions: for Reduction ratio of IOP / OD IOP Mean: 50 μL/eye t.i.d.; for Reduction ratio of IOP: treated right vs vehicle left eye; for IOP compared with the vehicle treated eyes: p≤0.05; for OD IOP Mean: treated right eye, Day 10/11
Protocol: Phase 2: To confirm the IOP lowering effect of test article at different concentrations in ocular hypertensive rabbits. Modeling was induced by intracameral injection of elastic substance in both eyes, once. Then, positive control articles/test article was instilled into right eyes of animals, 50 μL/eye, once at 5-15 minutes, 3 and 6 hours post modeling, respectively. All left eyes of animals in each group were dosed with vehicle, 50 μL/eye, once at 5-15 minutes, 3 and 6 hours post modeling, respectively. IOPs was measured at pre-modeling, 1, 2, 4, 6, 8, and 10 hours post first dose.
For further analysis of the IOP reduction effect, the IOP reduction ratio was calculated using the difference between the TA/PA treated and vehicle treated eyes at each time points post first dosing. The results were tabulated below:
Animals were sedated by Ketamine (30˜50 mg/kg) and anesthetized by Xylazine (5˜10 mg/kg), intramuscularly. Disinfected the conjunctival sac by washing with 5% povidone iodine, and then washed the conjunctival sac with saline. Fixed the eyeball with forceps, then inserted needle from the temporal limbus horizontally, avoided damaging the corneal endothelial and iris. Held the syringe still and injected the Medical Sodium Hyaluronate Gel slowly into the anterior chamber, 100 μl/eye, waited for at least 10 seconds, then pulled out the needle slowly. Pressed the injection spot immediately with swab for at least 3 minutes, blocked the injection spot with one drop of tissue adhesive.
For Phase 2, 50 μL of 1% and 2% Compound 18, 0.024% latanoprostene bunod ophthalmic solution and 0.005% latanoprost eye drops were instilled into the right eyes and the same volume of Vehicle (Gel-blank) into the left eyes in Group 5 to Group 8 of Ocular Hypertensive Rabbits, 50 μL/eye, three times. The first day of dosing in phase 1 was designated as Day 1.
Delivery Method: Drawed 50 μL of the articles with a pipette, pulled out the lower eyelid of the animal, dropped the article into the conjunctiva sac, and gently closed the upper and lower eyelids for a few times.
Species/Strain: New Zealand White Rabbits (Oryctolagus cuniculus). The New Zealand White Rabbit was used in this study. This is commonly used specie for non-clinical studies of ophthalmic formulations, for which there is a large historical database, and the relative large cornea size is suitable for topical operations.
Restrained the animal, made the testing eye perpendicular to the probe of the TonoVet tonometer, measured the IOP for at least three times until the values are stable. The mean of the last three stable values were calculated as the final IOP value.
IOP Measurement in Ocular Hypertensive Rabbits: IOP was measured at pre-modeling, and once at 1, 2, 4, 6, 8, and 10 hours post first daily dose in study phase 2.

CCCc1nn(C)c2c(=O)[nH]c(-c3cc(S(=O)(=O)N4CC(CCCO[N+](=O)[O-])C4)ccc3OCC)nc12 [Compound 18, 3-(1-((4-ethoxy-3-(1-methyl-7-oxo-3-propyl-6,7-dihydro-1H-pyrazolo[4,3-d]pyrimidin-5-yl)phenyl)sulfonyl)azetidin-3-yl)propyl nitrate]
tolerability (Example 9, topical instillation in rabbits): well tolerated | Reduction ratio of IOP (Group 7, 10 mg/mL, 1 h post first dose): 23.36% | Reduction ratio of IOP (Group 7, 10 mg/mL, 2 h post first dose): 35.65% | Reduction ratio of IOP (Group 7, 10 mg/mL, 4 h post first dose): 21.68% | Reduction ratio of IOP (Group 7, 10 mg/mL, 6 h post first dose): 28.06% | Reduction ratio of IOP (Group 7, 10 mg/mL, 8 h post first dose): 23.97% | Reduction ratio of IOP (Group 7, 10 mg/mL, 10 h post first dose): 21.67% | Reduction ratio of IOP (Group 8, 20 mg/mL, 1 h post first dose): 45.31% | Reduction ratio of IOP (Group 8, 20 mg/mL, 2 h post first dose): 34.59% | Reduction ratio of IOP (Group 8, 20 mg/mL, 4 h post first dose): 26.95% | Reduction ratio of IOP (Group 8, 20 mg/mL, 6 h post first dose): 18.04% | Reduction ratio of IOP (Group 8, 20 mg/mL, 8 h post first dose): 10.85% | Reduction ratio of IOP (Group 8, 20 mg/mL, 10 h post first dose): −5.73% | IOP compared with the vehicle treated eyes (Phase 2, 10 mg/mL, at 2 h post dosing): significant decreased IOPs | IOP compared with the vehicle treated eyes (Phase 2, 20 mg/mL, at 1 h post dosing): significant decreased IOPs | OD IOP Mean (Phase 2 Group 7, 10 mg/mL (1%), 1 h post first dose): 9.19 | OD IOP Mean (Phase 2 Group 7, 10 mg/mL (1%), 2 h post first dose): 13.80 | OD IOP Mean (Phase 2 Group 7, 10 mg/mL (1%), 4 h post first dose): 20.47 | OD IOP Mean (Phase 2 Group 7, 10 mg/mL (1%), 6 h post first dose): 21.53 | OD IOP Mean (Phase 2 Group 7, 10 mg/mL (1%), 8 h post first dose): 17.82 | OD IOP Mean (Phase 2 Group 7, 10 mg/mL (1%), 10 h post first dose): 15.22 | OD IOP Mean (Phase 2 Group 8, 20 mg/mL (2%), 1 h post first dose): 11.74 | OD IOP Mean (Phase 2 Group 8, 20 mg/mL (2%), 2 h post first dose): 19.67 | OD IOP Mean (Phase 2 Group 8, 20 mg/mL (2%), 4 h post first dose): 25.57 | OD IOP Mean (Phase 2 Group 8, 20 mg/mL (2%), 6 h post first dose): 28.93 | OD IOP Mean (Phase 2 Group 8, 20 mg/mL (2%), 8 h post first dose): 27.40 | OD IOP Mean (Phase 2 Group 8, 20 mg/mL (2%), 10 h post first dose): 22.63
